# Source: the OligoGym collection
# Values joined by “and” are separate entries in the source; they are usually repeats but may differ in a detail not shown here. Equal values may be shown once. After the bases stand the sugars from the 5' end (letter, count) and the backbone: PS all phosphorothioate, else s phosphorothioate and o phosphodiester by linkage. Methylation of C is not given here. e = 2'-O-(2-methoxyethyl) (MOE); d = 2'-deoxy (DNA)
# Biological target: DGAT2
# Conditions: ASO
Sequence,"target mRNA inhibition (HepG2, 0.12 µM)","target mRNA inhibition (HepG2, 2.5 µM)","target mRNA inhibition (HepG2, 10 µM)","target mRNA inhibition (HepG2, 20 µM)"
"GCTCAGAGACTCAGCCGCAC (sugars e3 d14 e3, PS)",69%,,,
"GCTCAGATCACTCTGCACAG (sugars e5 d10 e5, PS)",,77% and 81% and 82%,90% and 86% and 89%,
"GCTGCATCCATGTCATCAGC (sugars e2 d16 e2, PS)",53%,,,
"GCTGCATCCATGTCATCAGC (sugars e5 d10 e5, PS)",43%,,,
"GCTGTGATGACTTCCCAGGG (sugars e5 d10 e5, PS)",,75%,86%,
"GCTTTAATCCAGGATTGTCA (sugars e5 d10 e5, PS)",,73% and 76% and 82%,91% and 88% and 93%,
"GGAAAACTTAGGCATGCTTC (sugars e5 d10 e5, PS)",,64% and 72%,90% and 87%,
"GGAAACTTTCCCACAGTCAG (sugars e5 d10 e5, PS)",,69%,94%,
"GGAAAGGCACAGGCTTTGGG (sugars e5 d10 e5, PS)",,57% and 66%,92% and 97%,
"GGACAGCTGTGATGACTTCC (sugars e5 d10 e5, PS)",,55%,76%,
"GGACCCACTGGAGCACT (sugars e3 d10 e4, PS)",,57%,93%,
"GGACCCACTGGAGCACTGAG (sugars e2 d13 e5, PS)",86%,24%,28%,67%
"GGACCCACTGGAGCACTGAG (sugars e3 d14 e3, PS)",82%,29%,42%,71%
"GGAGCTCAGAGACTCAGCCG (sugars e5 d10 e5, PS)",73%,,,
"GGAGGAGTTCTCGAATATCC (sugars e5 d10 e5, PS)",,84%,74%,
"GGATGGTGATGGGCTCTCCC (sugars e5 d10 e5, PS)",67%,,,
"GGCAGATAACCACAGCGATA (sugars e5 d10 e5, PS)",,75%,84%,
"GGCCAAGGACAGAGGTTCAA (sugars e5 d10 e5, PS)",,60%,87%,
"GGCTCCGGTCAGCCTCGGCC (sugars e5 d10 e5, PS)",0%,,,
"GGCTGAGTCTGTGCTGCATC (sugars e5 d10 e5, PS)",,85% and 65%,81%,
"GGGCAAAAAGTGAATCATCT (sugars e5 d10 e5, PS)",,39%,72%,

Sequence,"target mRNA inhibition (HepG2, 0.12 µM)","target mRNA inhibition (HepG2, 2.5 µM)","target mRNA inhibition (HepG2, 10 µM)","target mRNA inhibition (HepG2, 20 µM)"
"GGGTCAAGGTCACTCAGCCA (sugars e5 d10 e5, PS)",33%,,,
"GGGTCATTTTGGAGACCACA (sugars e5 d10 e5, PS)",,59%,83%,
"GGGTTATTGCAACCACTAGG (sugars e5 d10 e5, PS)",,74%,80%,
"GGTAAGGCCGTATGCCTGGG (sugars e2 d13 e5, PS)",53%,,,
"GGTCTTTTTGGCTGCCCTGC (sugars e5 d10 e5, PS)",,81% and 84%,87% and 90%,
"GGTGATGGGCTTGGAGTAGG (sugars e5 d10 e5, PS)",36%,,,
"GGTTCCGCAGGGTGACTGCA (sugars e5 d10 e5, PS)",,48%,68%,
"GGTTCTTGTCCTGGTCCCAG (sugars e5 d10 e5, PS)",,75% and 77%,90% and 94%,
"GGTTGTGTGTCTTCACCAGC (sugars e3 d14 e3, PS)",70%,,,
"GGTTTACTGCATAGCTGAGC (sugars e5 d10 e5, PS)",,79% and 72%,86% and 76%,
"GTAAGCCTCGGTGTCCTCTC (sugars e5 d10 e5, PS)",,91%,85%,
"GTACACTTCATTCTCTCCAA (sugars e5 d10 e5, PS)",82%,,,
"GTATCCTTAAAGCAGGGCCC (sugars e5 d10 e5, PS)",,84% and 81%,85% and 89%,
"GTCAAACACCAGCCAAGTGA (sugars e5 d10 e5, PS)",15%,,,
"GTCAGCAGGTTGTGTGTCTT (sugars e5 d10 e5, PS)",64% and 59%,30%,76%,93%
"GTCATACTTACTGTTCAGCA (sugars e5 d10 e5, PS)",,78% and 65%,94% and 91%,
"GTCCTAGTGCCCCAGGG (sugars e3 d10 e4, PS)",,76% and 86%,93% and 95%,
"GTCCTGCAGTTTCAGGACTA (sugars e5 d10 e5, PS)",54%,,,
"GTCTGGGAACAGCAGCATCA (sugars e5 d10 e5, PS)",,72%,89%,
"GTCTGTGCTGCATCCATGTC (sugars e5 d10 e5, PS)",,41% and 50%,74%,
"GTGATGACTTCCCAGGG (sugars e3 d10 e4, PS)",,66% and 82%,67% and 84%,

Sequence,"target mRNA inhibition (HepG2, 0.12 µM)","target mRNA inhibition (HepG2, 2.5 µM)","target mRNA inhibition (HepG2, 10 µM)","target mRNA inhibition (HepG2, 20 µM)"
"GTGATTATTCTAAAACTCAA (sugars e5 d10 e5, PS)",,34%,71%,
"GTGCAGCCTACAAGAGCCTG (sugars e5 d10 e5, PS)",,67%,86%,
"GTGCTCTCCAACTCCTCCCC (sugars e5 d10 e5, PS)",34%,,,
"GTGCTTTCTAAGTACCCTTT (sugars e5 d10 e5, PS)",,81% and 78%,92% and 89%,
"GTGGGAAAGGCACAGGCTTT (sugars e5 d10 e5, PS)",53%,,,
"GTGGTCTGGGAACAGCAGCA (sugars e5 d10 e5, PS)",,72% and 61%,66% and 72%,
"GTGGTTGCAATGTTGCC (sugars e3 d10 e4, PS)",,67% and 80%,88% and 94%,
"GTGTGTCTTCACCAGCTGGA (sugars e5 d10 e5, PS)",53%,,,
"GTTCCTGGTGGTCAGCAGGT (sugars e5 d10 e5, PS)",63%,,,
"GTTCTTGTCCTGGTCCCAGT (sugars e5 d10 e5, PS)",,83% and 68%,95% and 93%,
"GTTCTTTTGGAAGGGTGGAG (sugars e5 d10 e5, PS)",52%,,,
"GTTGCAATGTTGCCATC (sugars e3 d10 e4, PS)",,69% and 75%,89% and 96%,
"GTTGGTCTTTTTGGCTGCCC (sugars e5 d10 e5, PS)",,77% and 67%,88% and 86%,
"GTTTACTGCATAGCTGAGCA (sugars e5 d10 e5, PS)",,69% and 82%,79% and 96%,
"GTTTAGGCTATGGTCTGAGC (sugars e5 d10 e5, PS)",,85% and 75%,92%,
"GTTTGCTCAGTTCTTCCAAC (sugars e5 d10 e5, PS)",,83% and 78%,94% and 90%,
"TAACCCACAGACACCCATGA (sugars e5 d10 e5, PS)",14%,,,
"TAATCTGCTGCTCAGAAGGC (sugars e5 d10 e5, PS)",36%,,,
"TAATTTCTTTTAAATAACCC (sugars e5 d10 e5, PS)",0%,,,
